In patent publication US4943636A, “Certain pyridyl-di-sulfide-alkylenecarbonxylate-ortho-nitro-phenylsulfonic acid esters useful for coupling biological materials” (Cetus Corporation, priority 1987, dated 1990):
Like-named read-outs stand apart in the source and are kept apart here. Values belong to the compound of their own block, whether it stands above or below them.

Experiments:
[1] = Solubility in water / physical properties; format: physicochemical
[2] = system: bovine serum albumin; conditions: pH 8.5; compared with same ester of N-hydroxysuccinimide; cited from earlier work
[3] = prior-art agents; cited from earlier work
[4] = pH 7.4; cited from earlier work
[5] = system: polylysine
[6] = system: cells; conditions: reacted with fluoresceinated avidin; compared with biotin-p-nitrophenyl ester; cited from earlier work
[7] = system: sheep red blood cells (SRBC); assay: Labelling of sheep red blood cells, cytofluorometry; format: cell-based; conditions: excitation at 360 nm
Method: Dansyl-sac-HNSA ester was prepared as described in Example 1A using molar equivalents of HNSA, dicyclohexylcarbodiimide and dansyl-ε-aminocaproic acid (from Sigma Chemicals). For use in coupling to sheep red blood cells (SRBC) the dansyl-sac-HNSA ester (50 mg) was prepared in 7 ml of 0.28 M cacodylate buffer, pH 6.9.
Sheep red blood cells were washed 4 times (400×g, 8 minutes) in G-PBS buffer (5% α-D-glucose w/v in PBSCa-Mg). To 1 ml of packed red blood cells was added the 7 ml of dansyl-sac-HNSA ester dropwise with gentle mixing for 10 minutes at room temperature. The reaction was done in foil-wrapped glassware to protect against photodecomposition. Following the reaction the cells were washed in cold G-PBS buffer containing 1% heat inactivated (56° C., 30 minutes) FCS (fetal calf serum) until the supernatants were colorless (a minimum of 4 washes).
The dansyl-sac-HNSA labelled SRBC were monitored using a Coulter EPICS V Cytofluorometer immediately after labeling and at 24 hours. […] This translates to an increase in intensity 720 times over unlabeled cells.

[8] = system: streptavidin; parameters: species or system Streptomyces avidinii
Method: A total of 0.26 mg (4.3×10^-3 μmoles) of streptavidin purified from Streptomyces avidinii by the method of Hoffman et al., PNAS, 77, 4666-4668 (1980) was dissolved in 1.0 ml of phosphate buffered saline at pH 7.4 to yield a total amine concentration of 6.93×10^-5 M (16 NH2 /streptavidin). […] Good separation was achieved between the protein and the excess HNSA and unreacted HNSA ester. […] In this case […] of the amino groups on streptavidin (12.9 out of 16.0) reacted.

[9] = system: biotinylated polylysine; conditions: over a 30 minute period; pH 7.4
[10] = system: Horseradish Peroxidase (HRP); conditions: over a 30 minute period; pH 7.0
[11] = Storage stability; format: physicochemical; conditions: purified ester, stored desiccated
[12] = system: bovine serum albumin (BSA); conditions: for Percent Ester Remaining in Solution: pH 7.5, room temperature
Method: (§1) About 0.5 mg of the purified mal-sac HNSA ester from Example 1A was dissolved in 1 ml of distilled water.
The difference between the post-base and initial free HNSA concentration represents the concentration of ester. From the actual concentration of ester the amount of ester to be added to the protein solution to achieve the desired degree of substitution can be calculated.
A total of 22 mg ([…]) of BSA (of molecular weight 66,296) was dissolved in 2.0 ml of 0.01 M phosphate buffer at pH 7.5 to yield a total amino concentration of 1.0×10^-2 moles per liter (assuming 59 lysines/BSA molecule). […] The reaction was carried out at room temperature. […]

[13] = system: avidin; conditions: for Percent Ester Remaining: room temperature
[14] = Hydrolysis of ester by sodium hydroxide; format: physicochemical; conditions: 4.8 N sodium hydroxide added, pH 7.0 phosphate buffer aliquot
Method: as §1

[15] = Stability in water; format: physicochemical; conditions: no nucleophiles added

physical properties relative to mal-sac HNSA ester [1]: essentially the same properties
Compound: O=C(CCSSc1ccccn1)Oc1ccc(S(=O)(=O)O)cc1[N+](=O)[O-] [3-(2-pyridyldithio)propionyl-HNSA, 3-(2-pyridyldithio)propionyl-HNSA ester]

Compound: O=C(CCCCCNc1ccc([N+](=O)[O-])cc1[N+](=O)[O-])Oc1ccc(S(=O)(=O)O)cc1[N+](=O)[O-] [N-2,4-dinitrophenyl-6-aminocaproic acid ester of HNSA]
efficiency in conjugating to bovine serum albumin [2]: more efficient

Compound: O=C(CCSSc1ccccn1)ON1C(=O)CCC1=O [SPDP, N-succinimidyl-3-(2-pyridyldithio)propionate]
water solubility [3]: lack of water solubility

Compound: O=C(CNC(=O)OCc1ccccc1)Oc1ccc(S(=O)(=O)O)cc1[N+](=O)[O-] [Z-gly-HNSA, N-benzyloxycarbonyl-gly-HNSA]
rate of aminolysis by glycine relative to hydrolysis rate [4]: considerably higher than its hydrolysis rate

physical properties relative to mal-sac HNSA ester [1]: essentially the same physical properties
Compound: O=C1N[C@H]2[C@H](CS[C@H]2CCCCC(=O)Oc2ccc(S(=O)(=O)O)cc2[N+](=O)[O-])N1 [biotin-HNSA]
amino groups of the polylysine polypeptide reacted ([5]; 7 minutes): 28%
reaction rate ([5]; over a 5 minute period, pH 7.4): essentially linear
increase in fluorescence of treated cells [6]: much larger increase in fluorescence

Compound: CN(C)c1cccc2c(S(=O)(=O)NCCCCCC(=O)Oc3ccc(S(=O)(=O)O)cc3[N+](=O)[O-])cccc12 [dansyl-sac-HNSA]
increase in intensity over unlabeled cells [7]: 720 times

Compound: O=C(CCCCCN1C(=O)C=CC1=O)Oc1ccc(S(=O)(=O)O)cc1[N+](=O)[O-] [mal-sac-HNSA, N-maleimido-6-aminocaproyl-HNSA]
amino groups on streptavidin reacted ([8]; 20 minutes): 79%
number of amino groups on streptavidin reacted ([8]; 20 minutes, out of 16.0): 12.9
reaction rate ([8]; over the period measured, pH 7.4): essentially linear
reaction rate [9]: essentially linear
reaction rate [10]: essentially linear
solubility in water [1]: dissolve fully in water
storage stability [11]: stable for extended periods
Concentration of Ester ([12]; 0 minutes): 0.000156 mol/L
Percent Ester Remaining in Solution ([12]; 0 minutes): 94.0%
Concentration of Ester ([12]; 5 minutes): 0.000116 mol/L
Percent Ester Remaining in Solution ([12]; 5 minutes): 82.9%
Concentration of Ester ([12]; 9 minutes): 0.000103 mol/L
Percent Ester Remaining in Solution ([12]; 9 minutes): 78.3%
Concentration of Ester ([12]; 14 minutes): 0.000111 mol/L
Percent Ester Remaining in Solution ([12]; 14 minutes): 74.5%
ester reacted ([12]; 15 minutes): 0.0026 mol/L
ε-amino groups of BSA substituted ([12]; 15 minutes, of 59 ε-amino groups): 25.9%
Concentration of HNSA ([12]; With NaOH, 0 minutes): 0.000166 mol/L
Concentration of HNSA ([12]; With NaOH, 5 minutes): 0.00014 mol/L
Concentration of HNSA ([12]; With NaOH, 9 minutes): 0.000132 mol/L
Concentration of HNSA ([12]; With NaOH, 14 minutes): 0.000149 mol/L
Concentration of HNSA ([12]; Without NaOH, 0 minutes): 1.03e-05 mol/L
Concentration of HNSA ([12]; Without NaOH, 5 minutes): 2.44e-05 mol/L
Concentration of HNSA ([12]; Without NaOH, 9 minutes): 2.87e-05 mol/L
Concentration of HNSA ([12]; Without NaOH, 14 minutes): 3.77e-05 mol/L
reaction rate ([12]; over a 15 minute period): essentially linear
Percent Ester Remaining ([13]; 0 minutes): 89%
Percent Ester Remaining ([13]; 5 minutes): 86%
Percent Ester Remaining ([13]; 20 minutes): 78%
amino groups of avidin reacted ([13]; 30 minutes, 27 amino groups per avidin molecule): 13.5 amino groups
Percent Ester Remaining ([13]; 30 minutes): 73%
reaction rate ([13]; FIG. 3): linear
hydrolysis by hydroxide [14]: rapidly hydrolyzed
stability in water [15]: stable in water for several hours

Compound: mal-sac-BSA: product of the first reaction of mal-sac-HNSA ester with bovine serum albumin
mal-sac groups per molecule ([12]; 15 minutes): 16 mal-sac groups per molecule
